Data on two substances can be found in US9422545B2 (priority 2013, dated 2016).

The subject of test [1] is virulent C. burnetii. Also noted: species or system Coxiella burnetii.
Test [2] has as its system 1E4. It counts as binding, mouse.

EDTA: in test [1], the “number of dead bacteria” value was “significantly higher numbers of dead bacteria”.
Consider SPPWHKHELHRK [m1E44], for which, in test [2], the “inhibition index (A490 without PI-A490 with PI/A490 without PI)” value was “highest inhibition index”.
